According to patent US9451775B2, “Heterocyclic compounds as pesticides” (Bayer Intellectual Property GmbH, priority 2008, dated 2016):

Assays:
[1] = logP determination by HPLC (formic acid method); type: physicochemical; conditions: reversed-phase HPLC column (C18), pH 3.4, HPLC on reversed-phase column (C18), acidic range (pH 3.4), 55° C.; read-out: logP (HCOOH)
Outline: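 Reversed-phase C18 HPLC at 55 °C, pH 3.4, with a 4.25 min gradient from 10% to 95% acetonitrile (formic acid-modified water/acetonitrile phases). logP was derived from retention time by linear interpolation between unbranched alkan-2-ones (C3-C16) of known logP.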

[2] = system: green peach aphid (Myzus persicae); experiment: Myzus test (spray treatment); type: in vivo; conditions: foliar, application rate of 500 g/ha, sprayed Chinese cabbage leaf discs, read-out: activity (effect in %, aphids killed)
Method: Myzus Test (Spray Treatment)
• Solvents: 78.0 parts by weight of acetone • 1.5 parts by weight of dimethylformamide • Emulsifier: 0.5 part by weight of alkylaryl polyglycol ether
To produce a suitable preparation of active compound, 1 part by weight of active compound is mixed with the stated amounts of solvents and emulsifier, and the concentrate is diluted with emulsifier-containing water to the desired concentration.
Discs of leaves of Chinese cabbage (Brassica pekinensis) which are heavily infested by all stages of the green peach aphid (Myzus persicae) are sprayed with an active compound preparation of the desired concentration.
After the desired period of time, the effect in % is determined. 100% means that all aphids have been killed; 0% means that none of the aphids have been killed.

| SMILES | chromatographic logP [1] | pest or weed control at 500 g/ha [2] [%] |
| --- | --- | --- |
| Cc1nc(-c2cccnc2)sc1-c1nc(C(F)(F)F)co1 [compound 75] | 2.97 | ≥ 80 |
| Cc1nc(-c2cccnc2)sc1-c1ccn(-c2nnc(C(C)C)s2)n1 [compound 76] | 3.11 | ≥ 80 |
| Cc1nc(-c2cccnc2)sc1-c1ccn(-c2ncccc2[N+](=O)[O-])n1 [compound 77] | 2.5 | ≥ 80 |
| CCOc1cc(OCC)nc(-n2ccc(-c3sc(-c4cccnc4)nc3C)n2)n1 [compound 79] | 3.94 | ≥ 80 |
| Cc1nc(-c2cccnc2)sc1-c1ccn(-c2nnc(C(F)(F)F)n2C)n1 [compound 80] | 2.27 | ≥ 80 |
| COc1cc(OC)nc(-n2ccc(-c3sc(-c4cccnc4)nc3C)n2)n1 [compound 81] | 2.8 | ≥ 80 |
| Cc1nc(-c2cccnc2)sc1-c1ccn(-c2cnccc2F)n1 [compound 82] | 2.23 | ≥ 80 |
| Cc1nc(-c2cccnc2)sc1-c1ccn(-c2nnc(C(F)F)s2)n1 [compound 85] | 2.8 | ≥ 80 |
| Cc1nc(-c2cccnc2)sc1-c1ccn(-c2nnc(C3CC3)s2)n1 [compound 86] | 2.72 | ≥ 80 |
| Cc1nc(-c2cccnc2)sc1-c1ccn(-c2nc(Cl)cs2)n1 [compound 87] | 3.47 | ≥ 80 |
| c1cnc(-n2ccc(-c3cnc(-c4cccnc4)s3)n2)nc1 [compound 89] | 1.48 | ≥ 80 |
| Cc1nc(-c2cccnc2)sc1-c1ccncn1 [compound 90] | 1.39 | ≥ 80 |
| Cc1nc(-c2cccnc2)sc1-c1nc(N)nc(C(C)F)n1 (stereo not drawn) [compound 93] | 1.86 | ≥ 80 |
| Cc1nc(-c2cccnc2)sc1-c1nccc(C(F)(F)F)n1 [compound 94] | 3.14 | ≥ 80 |
| COC(=O)c1cccc(-c2sc(-c3cccnc3)nc2C)n1 [compound 95] | 2.03 | ≥ 80 |
| Cc1nc(-c2cccnc2)sc1-c1cccc(N2CCOCC2)n1 [compound 96] | 2.58 | ≥ 80 |
| Cc1nc(-c2cccnc2)sc1-c1cccc(N2CC(C)OC(C)C2)n1 (stereo not drawn) [compound 98] | 3.55 | ≥ 80 |

| SMILES | chromatographic logP [1] | pest or weed control at 500 g/ha [2] [%] |
| --- | --- | --- |
| Cc1nc(-c2cccnc2)sc1-c1ccc(C(F)(F)F)cn1 [compound 99] | 3.14 | ≥ 80 |
| COC(=O)c1oc(-c2sc(-c3cccnc3)nc2C)nc1C [compound 100] | 2.55 | ≥ 80 |
| Cc1nc(-c2cccnc2)sc1-c1nnc(C(F)(F)F)s1 [compound 102] | 2.85 | ≥ 80 |
| Cc1nc(-c2cccnc2)sc1-c1ccn(C(=S)NC2CC2)n1 [compound 104] | 3.23 | ≥ 80 |
| Cc1nc(-c2cccnc2)sc1-c1ccn(-c2nnc(C3CCC3)s2)n1 [compound 106] | 3.42 | ≥ 80 |
| COc1nc(-n2ccc(-c3sc(-c4cccnc4)nc3C)n2)nc2c1CCC2 [compound 108] | 3.18 | ≥ 80 |
| Cc1nc(-c2cccnc2)sc1-c1ccnc(C(F)(F)F)n1 [compound 109] | 2.72 | ≥ 80 |
| Cc1nc(-c2cccnc2)sc1-c1ccn(-c2nnc(C(F)Cl)s2)n1 (stereo not drawn) [compound 110] | 3.24 | ≥ 80 |
| Cc1nc(-c2cccnc2)sc1-c1cc(C(F)(F)F)ncn1 [compound 111] | 2.8 | ≥ 80 |
| COC(=O)c1nc(-c2sc(-c3cccnc3)nc2C)ccc1Cl [compound 112] | 2.64 | ≥ 80 |
| CCCOCC(C)NC(=O)n1ccc(-c2sc(-c3cccnc3)nc2C)n1 (stereo not drawn) [compound 114] | 3.27 | ≥ 80 |
| CCC(COC)NC(=O)n1ccc(-c2sc(-c3cccnc3)nc2C)n1 (stereo not drawn) [compound 116] | 2.61 | ≥ 80 |
| Cc1nc(-c2cccnc2)sc1-c1ccn(C(=O)NC(C)(C)C)n1 [compound 119] | 3.23 | ≥ 80 |
| Cc1nc(-c2cccnc2)sc1-c1ccn(C(=O)NCC(C)C)n1 [compound 120] | 2.89 | ≥ 80 |
| CCNC(=O)n1ccc(-c2sc(-c3cccnc3)nc2C)n1 [compound 121] | 2.05 | ≥ 80 |
| Cc1nc(-c2cccnc2)sc1-c1ccn(C(=O)NC2CCCCC2)n1 [compound 122] | 3.56 | ≥ 80 |

More lines, main results first:

| chromatographic logP [1] | SMILES | pest or weed control at 500 g/ha [2] [%] |
| --- | --- | --- |
| 2.99 | Cc1nc(-c2cccnc2)sc1-c1ccn(-c2cnc(C(F)(F)F)nc2)n1 [compound 78] | ≥ 80 |
| 3.63 | Cc1nc(-c2cccnc2)sc1-c1ccn(-c2nnc(C(C)(C)C)s2)n1 [compound 83] | ≥ 80 |
| 2.61 | CCc1nnc(-n2ccc(-c3sc(-c4cccnc4)nc3C)n2)s1 [compound 84] | ≥ 80 |
| 1.05 | c1cnc(-c2nccc(-c3cnc(-c4cccnc4)s3)n2)nc1 [compound 88] | ≥ 80 |
| 2.41 | Cc1nc(-c2cccnc2)sc1-c1nc(-c2nnc(C(F)(F)F)n2C)no1 [compound 91] | ≥ 80 |
| 3.84 | Cc1nc(-c2cccnc2)sc1-c1ccn(-c2cccc(Cl)n2)n1 [compound 92] | ≥ 80 |
| 2.93 | Cc1nc(-c2cccnc2)sc1-c1cccc(-n2cccn2)n1 [compound 97] | ≥ 80 |
| 2.42 | Cc1nc(-c2cccnc2)sc1-c1cccc(C2=NOCCO2)c1 [compound 101] | ≥ 80 |
| 2.55 | Cc1nc(-c2cccnc2)sc1-c1ccn(C(=O)NC(C)C)n1 [compound 103] | ≥ 80 |
| 2.69 | Cc1nc(-c2cccnc2)sc1-c1ccnc(CC2CC2)n1 [compound 105] | ≥ 80 |
| 3.85 | Cc1nc(-c2cccnc2)sc1-c1ccn(-c2nnc(C3CCCC3)s2)n1 [compound 107] | ≥ 80 |
| 2.23 | COCC(C)NC(=O)n1ccc(-c2sc(-c3cccnc3)nc2C)n1 (stereo not drawn) [compound 113] | ≥ 80 |
| 2.2 | CCOCCNC(=O)n1ccc(-c2sc(-c3cccnc3)nc2C)n1 [compound 115] | ≥ 80 |
| 3.18 | Cc1nc(-c2cccnc2)sc1-c1ccn(C(=O)NC(C)COC(C)C)n1 (stereo not drawn) [compound 117] | ≥ 80 |
| 2.69 | CCOCC(C)NC(=O)n1ccc(-c2sc(-c3cccnc3)nc2C)n1 (stereo not drawn) [compound 118] | ≥ 80 |
